The target of data set [1] is T1, hFIIa (Homo sapiens, UniProt P00734).
T1 construct: purchased HT5146L
Nature of the data set: Selectivity to coagulation factors: hFIIa (substrate S-2238). Type of data set: biochemical. The protocol:
(§1) Example 52: Investigation of the Selectivity of the Compounds of the Present Invention to Coagulation Factors
(§2) Enzyme: hFXa: Human Factor Xa: 71nkat. hFIIa: HT5146L. hFVIIa: Human Factor VIIa: hFVIIa 4591L. kallikrein: LOT180223.
(§3) 10 mM test compound dissolved in 100% DMSO was diluted with 100% DMSO to 1000, 200, 40, 8, 1.6 μM. 98 μL of enzyme solution was added to each well of a 96-well plate, while 98 μL of buffer was added to the blank wells. 2 μL of compounds of different concentrations were added, while the blank and control wells were added with DMSO instead. They were mixed with a shaker, and incubated at 37° C. for 20 min.
(§4) The concentrations of hFXa and S-2222™ were FXa (1:28) and 800 μmol/L, respectively. The concentrations of hFIIa and S-2238™ were hFIIa (0.06 U/ml) and 500 μmol/L, respectively. The concentrations of hFVIIa and S-2288™ were hFVIIa (80 nM) and 1600 μmol/L, respectively. The concentrations of kallikrein and substrate were kallikrein (20 nM) and 1600 μmol/L, respectively.
(§5) Finally, 100 μL substrate was added to each well, and its absorbance was measured at 405 nm.

In data set [2] the target is T2, Human Factor VIIa (Homo sapiens, UniProt P08709).
T2 construct: hFVIIa: Human Factor VIIa: hFVIIa 4591L; purchased hFVIIa 4591L
T2 sequence (P08709 213-466 limits assumed): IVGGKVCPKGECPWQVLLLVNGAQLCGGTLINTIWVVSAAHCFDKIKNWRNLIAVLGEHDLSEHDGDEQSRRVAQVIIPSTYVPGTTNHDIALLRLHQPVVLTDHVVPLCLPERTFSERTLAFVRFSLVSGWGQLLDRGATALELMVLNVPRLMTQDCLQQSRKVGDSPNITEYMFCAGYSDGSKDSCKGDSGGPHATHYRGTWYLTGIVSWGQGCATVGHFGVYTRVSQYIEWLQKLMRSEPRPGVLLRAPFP
T2 sequence (P08709 61-212 partner limits assumed): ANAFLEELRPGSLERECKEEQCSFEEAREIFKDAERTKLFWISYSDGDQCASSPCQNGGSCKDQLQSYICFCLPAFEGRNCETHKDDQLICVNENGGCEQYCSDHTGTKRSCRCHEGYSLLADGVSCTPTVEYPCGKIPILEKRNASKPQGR
In words: Selectivity to coagulation factors: hFVIIa (substrate S-2288). It is filed as biochemical. The protocol:
as §1, §2, §3, §4, §5

Data set [3] concerns the target T3, hKallikrein (Homo sapiens, UniProt P03952).
T3 construct: purchased LOT180223
In words: Selectivity to coagulation factors: kallikrein. Type of data set: biochemical. The protocol:
as §1, §2
kallikrein buffer: 50 mM Tris, 50 mM Mimidazole and 150 mM NaCl (pH 8.2).
as §3, §4, §5

A short description of data set [4]: Caco-2 permeability. It is filed as in vitro ADME. The conditions noted are these: human; for efflux ratio at 2 h: Caco-2, Papp(B-A)/Papp(A-B); for Papp A→B at 2 h / Papp B→A at 2 h: Caco-2 monolayer, 2h incubation. The protocol:
Example 54: Investigation of the Caco-2 Data of the Compounds of the Present Invention
Medium: DMEM (Corning), FBS (Corning), double antibody (Solarbio), 96-well HTS transwell plate (Corning), Caco-2 cells.
Experimental method: Caco-2 cells were cultured on 96-well HTS transwell plate for 14-18 days, and the TEER value of each well was detected to ensure that the cells in each well formed a complete monolayer. Drug was added and it was incubated for 2h to detect the drug concentrations of A-B and B-A.
Data processing: PappA-B and PappB-A values were calculated: Papp=(VA×[drug]acceptor)/(Area×Time×[drug]initial, donor); Efflux Ratio was calculated: Efflux Ratio=Papp(B-A)/Papp(A-B).
In general terms: Caco-2 monolayers are a common model of the intestinal barrier.

Data set [5] addresses T4, CYP2C19 (Homo sapiens, UniProt P33261).
T4 construct: Liver microsomes (150-donor, Corning, Cat. 452117; Lot; 38292), NADPH; tissue Corning 452117; host or cells: liver microsomes, 150-donor pool
Nature of the data set: CYP enzyme inhibition in liver microsomes: CYP2C19. Type of data set: in vitro ADME. The conditions noted are these: 0.2 mg/mL liver microsomes. Here is the method:
(§6) Example 55: Investigation of CYP Enzyme Inhibition by the Compounds of the Present Invention Liver microsomes (150-donor, Corning, Cat. 452117; Lot. 38292), NADPH. A 0.2 mg/mL microsome system was prepared, each test substance and substrate were added, and the final concentration of the test substance was 50 μM. After pre-incubating for 8 min, 10 mM NADPH was added to start the reaction, and the final concentration of NADPH was 1 mM. After a period of incubation, an internal standard such as methanol was added to stop the reaction. The amount of substrate metabolites generated in each reaction well was detected. Data processing: Taking the metabolite generation in the blank well as 100%, the reduction of metabolite generation in each well of the test substance was calculated, and the inhibition rate was calculated.
Background: Liver microsomes are vesicles of endoplasmic reticulum, rich in cytochrome P450 enzymes.

Data set [6] addresses T5, CYP2D6 (Homo sapiens, UniProt P10635).
T5 construct: Liver microsomes (150-donor, Corning, Cat. 452117; Lot; 38292), NADPH; tissue Corning 452117; host or cells: liver microsomes, 150-donor pool
In words: CYP enzyme inhibition in liver microsomes: CYP2D6. Type of data set: in vitro ADME. The conditions noted are these: 0.2 mg/mL liver microsomes. Here is the method:
as §6

Data set [7] has as its target T6, CYP3A4 (Homo sapiens, UniProt P08684).
T6 construct: Liver microsomes (150-donor, Corning, Cat. 452117; Lot; 38292), NADPH; tissue Corning 452117; host or cells: liver microsomes, 150-donor pool
In words: CYP enzyme inhibition in liver microsomes: CYP3A4. The conditions noted are these: 0.2 mg/mL liver microsomes. Type of data set: in vitro ADME. Here is the method:
Example 55: Investigation of CYP Enzyme Inhibition by the Compounds of the Present Invention Liver microsomes (150-donor, Corning, Cat. 452117; Lot. 38292), NADPH. […] After pre-incubating for 8 min, 10 mM NADPH was added to start the reaction, and the final concentration of NADPH was 1 mM. After a period of incubation, an internal standard such as methanol was added to stop the reaction. The amount of substrate metabolites generated in each reaction well was detected. […]

Data set [8] concerns the target T7, CYP3A5 (Homo sapiens, UniProt P20815).
T7 construct: Liver microsomes (150-donor, Corning, Cat. 452117; Lot; 38292), NADPH; tissue Corning 452117; host or cells: liver microsomes, 150-donor pool
Nature of the data set: CYP enzyme inhibition in liver microsomes: CYP3A5. Type of data set: in vitro ADME. The conditions noted are these: 0.2 mg/mL liver microsomes. The protocol: as §6

T7 sequence (P20815 whole entry): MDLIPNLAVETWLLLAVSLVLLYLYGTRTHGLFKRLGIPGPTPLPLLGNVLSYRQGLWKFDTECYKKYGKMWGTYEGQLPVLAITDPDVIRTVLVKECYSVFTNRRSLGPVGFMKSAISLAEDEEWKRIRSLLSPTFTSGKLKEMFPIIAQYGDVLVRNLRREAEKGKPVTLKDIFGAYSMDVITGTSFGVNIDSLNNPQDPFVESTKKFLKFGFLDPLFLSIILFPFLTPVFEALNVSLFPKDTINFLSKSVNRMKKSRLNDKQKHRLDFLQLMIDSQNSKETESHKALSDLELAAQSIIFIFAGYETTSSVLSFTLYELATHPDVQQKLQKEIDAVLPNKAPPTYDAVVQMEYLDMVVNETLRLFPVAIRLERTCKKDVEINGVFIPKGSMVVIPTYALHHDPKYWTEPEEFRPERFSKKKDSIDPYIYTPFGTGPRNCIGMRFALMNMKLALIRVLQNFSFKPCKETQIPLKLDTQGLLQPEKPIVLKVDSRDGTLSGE
T5 sequence (P10635 whole entry): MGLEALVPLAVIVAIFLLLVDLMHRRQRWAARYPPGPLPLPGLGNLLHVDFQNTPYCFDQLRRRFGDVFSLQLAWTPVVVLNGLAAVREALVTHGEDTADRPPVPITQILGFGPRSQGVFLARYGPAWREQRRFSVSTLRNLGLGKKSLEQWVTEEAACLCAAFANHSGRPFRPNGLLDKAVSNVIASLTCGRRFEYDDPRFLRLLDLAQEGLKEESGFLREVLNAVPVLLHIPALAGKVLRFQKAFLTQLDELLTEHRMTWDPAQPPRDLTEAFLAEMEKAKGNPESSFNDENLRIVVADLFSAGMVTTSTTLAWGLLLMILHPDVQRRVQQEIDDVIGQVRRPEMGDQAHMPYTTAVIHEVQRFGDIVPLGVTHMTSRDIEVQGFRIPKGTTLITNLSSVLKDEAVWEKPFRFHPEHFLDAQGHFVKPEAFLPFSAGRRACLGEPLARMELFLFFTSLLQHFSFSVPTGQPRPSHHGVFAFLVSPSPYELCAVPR
T6 sequence (P08684 whole entry): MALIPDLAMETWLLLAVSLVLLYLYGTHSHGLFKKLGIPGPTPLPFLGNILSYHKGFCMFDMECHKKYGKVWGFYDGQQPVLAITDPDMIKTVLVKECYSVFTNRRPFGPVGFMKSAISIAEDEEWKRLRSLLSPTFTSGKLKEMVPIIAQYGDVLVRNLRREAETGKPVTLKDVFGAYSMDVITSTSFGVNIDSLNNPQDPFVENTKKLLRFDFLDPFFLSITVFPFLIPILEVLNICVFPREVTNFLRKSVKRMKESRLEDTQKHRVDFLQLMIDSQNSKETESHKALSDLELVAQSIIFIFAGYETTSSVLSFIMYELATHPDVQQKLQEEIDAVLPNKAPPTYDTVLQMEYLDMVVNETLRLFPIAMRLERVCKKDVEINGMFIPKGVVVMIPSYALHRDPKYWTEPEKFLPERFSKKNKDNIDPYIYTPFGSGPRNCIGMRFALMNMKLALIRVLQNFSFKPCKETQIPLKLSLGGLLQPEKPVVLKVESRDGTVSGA
T3 sequence (P03952 391-638 limits assumed): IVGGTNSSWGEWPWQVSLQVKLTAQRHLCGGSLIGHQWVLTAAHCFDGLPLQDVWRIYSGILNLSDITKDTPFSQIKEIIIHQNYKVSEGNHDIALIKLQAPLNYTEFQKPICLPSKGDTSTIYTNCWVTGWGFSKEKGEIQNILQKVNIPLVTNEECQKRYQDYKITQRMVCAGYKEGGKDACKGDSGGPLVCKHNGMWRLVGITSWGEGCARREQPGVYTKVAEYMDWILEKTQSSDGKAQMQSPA
T3 sequence (P03952 20-390 partner limits assumed): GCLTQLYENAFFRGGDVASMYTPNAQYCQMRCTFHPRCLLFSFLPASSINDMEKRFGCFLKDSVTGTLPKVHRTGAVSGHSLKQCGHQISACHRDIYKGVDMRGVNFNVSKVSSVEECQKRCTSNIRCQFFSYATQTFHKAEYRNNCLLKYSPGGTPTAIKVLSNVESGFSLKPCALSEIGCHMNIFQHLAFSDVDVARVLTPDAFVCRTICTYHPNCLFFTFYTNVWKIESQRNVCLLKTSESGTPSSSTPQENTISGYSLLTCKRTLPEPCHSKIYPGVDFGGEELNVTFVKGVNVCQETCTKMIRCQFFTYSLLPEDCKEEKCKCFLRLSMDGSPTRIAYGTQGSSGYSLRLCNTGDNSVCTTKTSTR
T4 sequence (P33261 whole entry): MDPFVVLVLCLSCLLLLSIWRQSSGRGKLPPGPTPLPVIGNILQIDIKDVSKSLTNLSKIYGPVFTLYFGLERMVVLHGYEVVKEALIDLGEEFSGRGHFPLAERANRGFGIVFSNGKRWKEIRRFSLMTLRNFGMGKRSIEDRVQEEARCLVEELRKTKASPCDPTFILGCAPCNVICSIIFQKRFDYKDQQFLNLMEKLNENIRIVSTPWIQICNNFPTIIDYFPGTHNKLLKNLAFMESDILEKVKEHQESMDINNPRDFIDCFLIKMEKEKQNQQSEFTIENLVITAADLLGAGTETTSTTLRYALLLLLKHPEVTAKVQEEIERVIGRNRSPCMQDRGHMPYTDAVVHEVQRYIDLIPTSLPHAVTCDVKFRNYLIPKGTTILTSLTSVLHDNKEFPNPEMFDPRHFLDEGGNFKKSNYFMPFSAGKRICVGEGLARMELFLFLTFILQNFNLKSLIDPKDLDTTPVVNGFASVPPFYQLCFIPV

As usually defined, the IC50 is the concentration that gives 50% inhibition. A low value points to greater potency in that assay. What is called efflux ratio is the permeability from basolateral to apical divided by that in the opposite direction, in the common usage. As a reminder, the Papp A→B is the apparent permeability from the apical to the basolateral side of a cell layer. A low value points to slow passage. In general, Papp B→A refers to how fast a substance crosses the layer from the basolateral side. On to `COc1nn([C@@H](Cc2ccccc2)C(=O)Nc2ccc(C(=O)O)cc2)c(=O)cc1-c1cc(Cl)ccc1C(C)=O` [Example 19, (S)-4-(2-(4-(2-acetyl-5-chlorophenyl)-3-methoxy-6-oxopyridazin-1(6H)-yl)-3-phenylpropanamido)benzoic acid], for which the IC50 in data set [1] was greater than 100 µM; in data set [2] it was greater than 100 µM; in data set [3], 0.524 ± 0.0602 µM; in data set [5] it was greater than 50 µM; in data set [6], greater than 50 µM; in data set [7], greater than 50 µM. In data set [8], this compound displayed an IC50 greater than 50 µM. Moreover, in data set [4], the efflux ratio at 2 h is 16.3. Moreover, in data set [4], the Papp A→B at 2 h came to 1.54 ×10⁻⁶ cm/s. This compound also displayed a Papp B→A at 2 h in data set [4] of 25.1 ×10⁻⁶ cm/s.

Consider `CCC(=O)c1ccc(Cl)cc1-c1cc(=O)n([C@@H](Cc2ccccc2)C(=O)Nc2ccc(C(=O)O)cc2)nc1OC` [Example 32], for which the IC50 is greater than 100 µM in data set [1]; greater than 100 µM in data set [2]; 0.103 ± 0.0149 µM in data set [3]; greater than 50 µM in data set [5]; greater than 50 µM in data set [6]; greater than 50 µM in data set [7]. Further, in data set [8], the IC50 is greater than 50 µM. In data set [4], the efflux ratio at 2 h was 18.3. In data set [4], the Papp A→B at 2 h stood at 1.2 ×10⁻⁶ cm/s. This compound registered a Papp B→A at 2 h in data set [4] of 21.9 ×10⁻⁶ cm/s.

The values are drawn from patent US20230027295A1, “FXIA INHIBITORS AND PREPARATION METHOD THEREFOR AND PHARMACEUTICAL USE THEREOF” (Shenzhen Salubris Pharmaceuticals Co., Ltd., priority 2019, published 2023).
